Legend:
[1] = tested on: phosphorylation of ERK, KRAS G12C in NCJ-H358 cells; experiment: pERK inhibition assay, KRAS G12C; type: cell-based, human; conditions: 4 hours
Outline: (§1)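 In-cell ELISA of phospho-ERK (HRP/TMB, OD450) after formaldehyde fixation and methanol permeabilization; IC50 by 4-parameter sigmoidal fit. Compound incubation 4 h, 0.5% DMSO final, on overnight-attached NCJ-H358, AGS or SW620 cells seeded at 30,000, 20,000 and 30,000 per well.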

[2] = tested on: phosphorylation of ERK, KRAS G12D in AGS cells; experiment: pERK inhibition assay, KRAS G12D; type: cell-based, human; conditions: Homo sapiens, 4 hours
Description: This assay is to measure the ability of test compounds in inhibiting the phosphorylation of ERK, the downstream signaling of KRAS G12C in NCJ-H358 cells, KRAS G12D in AGS cells, and KRAS G12V in SW620. NCJ-H358 (ATCC-CRL5807) cells, AGS (ATCC-CRL-1739) cells, SW620 (ATCC-CCL-227) cells were all grown and maintained using RPMI-1640 medium (Thermo Fisher Scientific) with 10% fetal bovine serum and 1% penicillin/streptomycin. On the day prior to compound addition, cells were plated in tissue culture-treated 96 well plates (Corning-3699) at a density of 30,000 cell/well, 20,000 cell/well, 30,000 cell/well for NCJ-H358, AGS and SW620 respectively, and allowed for attachment overnight. Diluted compounds were then added in a final concentration of 0.5% DMSO. After 4 hours of incubation, the medium was removed, 100 μL of 4% formaldehyde was added, and the assay plates were incubated at room temperature for 20 minutes. The plates were then washed once with phosphate buffered saline (PBS), and permeabilized with 100 μL of chilled methanol for 10 minutes. Non-specific antibody binding to the plates was blocked using 50 μL 1×BSA blocking buffer (Thermo-37520, 10-fold dilution by Phosphate-Buffered Saline Tween (PBST) for at least 1 hour at room temperature.
The amount of phosphor-ERK was determined using an antibody specific for phosphorylated form of ERK. Primary antibody (pERK, CST-4370, Cell Signaling Technology) was diluted 1:300 in blocking buffer, with 50 μL aliquoted to each well, and incubated overnight at 4′° C. Cells was washed five times for 5 minutes with PBST. Secondary antibody ([…] anti-rabbit IgG, CST-7074, Cell Signaling Technology) was diluted 1:1000 in blocking buffer, and 50 μL was added to each well and incubated 1-2 hrs at room temperature. Cells was washed 5 times for 5 minutes with PBST, 100 μL TMB ELISA substrate (abcam-ab171523) were added and gently shake for 20 minutes. 50 μL stop solution (abcam-ab171529) were added, and then read the signal (OD450) by EnVision.
IC50 was determined by fitting a 4-parameter sigmoidal concentration response model.

[3] = tested on: phosphorylation of ERK, KRAS G12V in SW620; experiment: pERK inhibition assay, KRAS G12V; type: cell-based, human
Outline: as §1

[4] = tested on: AGS (ATCC-CRL-1739) cells; experiment: Cell viability assay, G12D (AGS); type: cell-based, human; conditions: KRAS cell viability, 72 hrs, Cell Counting Kit-8
Outline: (§2)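 Seed NCI-H358 5,000/well, AGS and SW620 2,000/well; overnight. Compound, 0.5% DMSO final, 72 hrs. CCK-8 2 hrs, OD450–OD650. IC50: 4-parameter fit.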

SW620 (ATCC-CCL-227) = experiment: Cell viability assay, G12V (SW620); type: cell-based, human; conditions: KRAS cell viability, SW620, 72 hrs, Cell Counting Kit-8
Outline: as §2

KRAS G12C-BRAF complex = KRAS G12C-BRAF complex (Homo sapiens (Human), UniProt P01116+P62937, G12C); experiment: KRAS-BRAF with CYPA (500 nM) interaction assay (TR-FRET), G12C; type: biochemical
Sequence of KRAS G12C-BRAF complex (P01116-2 other isoform, or with tags, fused parts or gaps G12C): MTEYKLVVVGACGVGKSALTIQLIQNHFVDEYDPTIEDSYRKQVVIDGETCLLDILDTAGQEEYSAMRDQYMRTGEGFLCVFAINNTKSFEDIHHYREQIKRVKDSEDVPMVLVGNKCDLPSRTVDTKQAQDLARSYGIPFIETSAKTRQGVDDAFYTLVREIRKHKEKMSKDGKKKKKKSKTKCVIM
Sequence of KRAS G12C-BRAF complex (P62937 whole entry): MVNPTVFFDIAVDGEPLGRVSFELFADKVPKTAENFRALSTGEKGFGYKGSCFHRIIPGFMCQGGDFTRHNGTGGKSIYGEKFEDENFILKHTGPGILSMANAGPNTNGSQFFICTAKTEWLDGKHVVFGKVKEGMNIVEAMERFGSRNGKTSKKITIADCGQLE

[5] = target: KRAS G12D binding to BRAF (Homo sapiens (Human), UniProt P01116+P62937, G12D); experiment: KRAS-BRAF with CYPA (500 nM) interaction assay (TR-FRET), G12D; type: biochemical
Sequence of KRAS G12D binding to BRAF (P01116-2 other isoform, or with tags, fused parts or gaps G12D): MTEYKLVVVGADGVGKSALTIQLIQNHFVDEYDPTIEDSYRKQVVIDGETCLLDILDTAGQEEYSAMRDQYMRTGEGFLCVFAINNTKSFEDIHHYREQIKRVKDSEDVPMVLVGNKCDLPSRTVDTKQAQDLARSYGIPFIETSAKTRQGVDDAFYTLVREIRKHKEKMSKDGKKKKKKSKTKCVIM
Sequence of KRAS G12D binding to BRAF (P62937 whole entry): as the sequence (P62937 whole entry) above

[6] = target: KRAS G12V binding to BRAF (Homo sapiens (Human), UniProt P01116+P62937, G12V); experiment: KRAS-BRAF with CYPA (500 nM) interaction assay (TR-FRET), G12V; type: biochemical
Sequence of KRAS G12V binding to BRAF (P01116-2 other isoform, or with tags, fused parts or gaps G12V): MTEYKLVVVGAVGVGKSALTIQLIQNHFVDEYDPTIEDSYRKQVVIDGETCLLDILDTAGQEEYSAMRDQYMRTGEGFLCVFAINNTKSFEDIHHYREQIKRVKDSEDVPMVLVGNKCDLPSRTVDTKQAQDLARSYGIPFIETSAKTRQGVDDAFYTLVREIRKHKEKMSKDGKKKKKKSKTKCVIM
Sequence of KRAS G12V binding to BRAF (P62937 whole entry): as the sequence (P62937 whole entry) above
Outline: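 A TR-FRET assay measured how compound, in the presence of CYPA, disrupts binding of GMPPNP-loaded 6His-KRAS G12V to BRAF. The buffer contained 25 mM HEPES PH=7.4, 0.002% Tween20, 0.1% BSA, 100 mM NaCl, 5 mM MgCl2 and 10 μM GMPPNP. Compounds ran as a 16-point 3-fold dilution series from 10 μM for 3 hours.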

[7] = tested on: NCI-H358 (ATCC-CRL5807) cells; experiment: Cell viability assay, G12C (NCI-H358); type: cell-based, human; conditions: KRAS cell viability, NCI-H358, 72 hrs, Cell Counting Kit-8
Description: The purpose of this cellular assay was to determine the effects of test compounds on the proliferation of human cancer cell lines NCI-H358 (ATCC-CRL5807) cells, AGS (ATCC-CRL-1739) cells, SW620 (ATCC-CCL-227) over a 3-day treatment period by quantifying the amount of NADPH present at endpoint using Cell Counting Kit-8.
Cells were seeded at 5,000 cells/well (NCI-H358), 2,000 cells/well (AGS) 2,000 cells/well (SW620) in 96-well assay plates (Corning-3699) and incubated overnight. On the day of the assay, diluted compounds were then added in a final concentration of 0.5% DMSO. After 72 hrs incubation, a tenth of the volume of cell counting kit 8 (Dnjindo-CK04) was added into each well. Read the signal (OD450 minus OD650) using EnVision after 2 hrs incubation. IC50 was determined by fitting a 4-parameter sigmoidal concentration response model.

[8] = Homo sapiens, SW-620, SW620, 4 hours

Row | IC50 [7] [nM] | IC50 [4] [nM] | IC50 (SW620 (ATCC-CCL-227)) [nM] | IC50 [1] [nM] | IC50 ([3]; SW620, 4 hours) [nM] | SMILES | IC50 ([1]; Homo sapiens) [nM] | IC50 [2] [nM] | IC50 [3, 8] [nM] | IC50 ([4]; Homo sapiens) [nM] | IC50 (SW620 (ATCC-CCL-227); Homo sapiens, SW-620) [nM] | IC50 (KRAS G12C-BRAF complex) [nM] | IC50 [5] [nM] | IC50 [6] [nM] | IC50 ([7]; Homo sapiens) [nM]
1 | – | – | – | – | – | CO[C@@H](C)c1ncc(N2CCN(C)CC2)cc1-c1c2c3cc(c(C)cc3n1CC(F)(F)F)-c1csc(n1)C[C@H](NC(=O)[C@H](C(C)C)N(C)C(=O)[C@H]1CCN(C(=O)[C@H](F)Cl)C1)C(=O)N1CCC[C@H](N1)C(=O)OCC(C)(C)C2 (atropisomer, axis not shown; (M)) [Example 3, (3S)-1-[(2R)-2-chloro-2-fluoro-acetyl]-N-[(1S)-1-[[(7S,13S)-(20M)-20-[2-[(1S)-1-methoxyethyl]-5-(4-methylpiperazin-1-yl)-3-pyridyl]-17,17,24-trimethyl-8,14-dioxo-21-(2,2,2-trifluoroethyl)-15-oxa-4-thia-9,21,27,28-tetrazapentacyclo[17.5.2.1^2,5.1^9,13.0^22,26]octacosa-1(25),2,5(28),19,22(26),23-hexaen-7-yl]carbamoyl]-2-methyl-propyl]-N-methyl-pyrrolidine-3-carboxamide] | 32 | 114 | 138 | – | – | – | – | – | –
2 | – | – | – | – | – | CO[C@@H](C)c1ncc(N2CCOCC2)cc1-c1c2c3cc(c(F)cc3n1CC(F)(F)F)-c1csc(n1)C[C@H](NC(=O)[C@H](C(C)C)N(C)C(=O)[C@H]1CCN(C(=O)[C@H](F)Cl)C1)C(=O)N1CCC[C@H](N1)C(=O)OCC(C)(C)C2 (atropisomer, axis not shown; (M)) [Example 24, (3S)-1-[(2R)-2-chloro-2-fluoro-acetyl]-N-[(1S)-1-[[(7S,13S)-24-fluoro-(20M)-20-[2-[(1S)-1-methoxyethyl]-5-morpholino-3-pyridyl]-17,17-dimethyl-8,14-dioxo-21-(2,2,2-trifluoroethyl)-15-oxa-4-thia-9,21,27,28-tetrazapentacyclo[17.5.2.1^2,5.1^9,13.0^22,26]octacosa-1(25),2,5(28),19,22(26),23-hexaen-7-yl]carbamoyl]-2-methyl-propyl]-N-methyl-pyrrolidine-3-carboxamide] | 5 | 12 | 18 | 283 | 34 | 53 | > 10000 | 1390 | –
3 | – | – | – | – | – | CO[C@@H](C)c1ncc(N2CCN(CC(F)(F)F)CC2)cc1-c1c2c3cc(c(F)cc3n1CC(F)(F)F)-c1csc(n1)C[C@H](NC(=O)[C@H](C(C)C)N1CC[C@]3(CCN(C(=O)[C@H](F)Cl)C3)C1=O)C(=O)N1CCC[C@H](N1)C(=O)OCC(C)(C)C2 (atropisomer, axis not shown; (M)) [Example 45, (2S)-2-[(5S)-7-[(2R)-2-chloro-2-fluoro-acetyl]-1-oxo-2,7-diazaspiro[4.4]nonan-2-yl]-N-[(7S,13S)-24-fluoro-(20M)-20-[2-[(1S)-1-methoxyethyl]-5-[4-(2,2,2-trifluoroethyl)piperazin-1-yl]-3-pyridyl]-17,17-dimethyl-8,14-dioxo-21-(2,2,2-trifluoroethyl)-15-oxa-4-thia-9,21,27,28-tetrazapentacyclo[17.5.2.1^2,5.1^9,13.0^22,26]octacosa-1(25),2,5(28),19,22(26),23-hexaen-7-yl]-3-methyl-butanamide] | 7 | – | 20 | 135 | 121 | 10 | 4970 | 299 | < 1
4 | – | – | – | – | – | CO[C@@H](C)c1ncc(N2CCN(CC(F)(F)F)CC2)cc1-c1c2c3cc(c(F)cc3n1CC(F)(F)F)-c1csc(n1)C[C@H](NC(=O)[C@H](C(C)C)N1CCC3(CCN(C(=O)[C@H](F)Cl)CC3)C1=O)C(=O)N1CCC[C@H](N1)C(=O)OCC(C)(C)C2 (atropisomer, axis not shown; (M)) [Example 47, (2S)-2-[8-[(2R)-2-chloro-2-fluoro-acetyl]-1-oxo-2,8-diazaspiro[4.5]decan-2-yl]-N-[(7S,13S)-24-fluoro-(20M)-20-[2-[(1S)-1-methoxyethyl]-5-[4-(2,2,2-trifluoroethyl)piperazin-1-yl]-3-pyridyl]-17,17-dimethyl-8,14-dioxo-21-(2,2,2-trifluoroethyl)-15-oxa-4-thia-9,21,27,28-tetrazapentacyclo[17.5.2.1^2,5.1^9,13.0^22,26]octacosa-1(25),2,5(28),19,22(26),23-hexaen-7-yl]-3-methyl-butanamide] | 26 | – | 176 | > 5000 | > 5000 | 79 | > 10000 | > 10000 | 30
5 | < 1 | 223 | 103 | 1 | 45 | CCn1c(-c2cc(N3CCN(CC(F)(F)F)CC3)cnc2[C@H](C)OC)c2c3cc(c(F)cc31)-c1csc(n1)C[C@H](NC(=O)[C@H](C(C)C)N1CC[C@]3(CCN(C(=O)[C@H](F)Cl)C3)C1=O)C(=O)N1CCC[C@H](N1)C(=O)OCC(C)(C)C2 [Example 38, (2S)-2-[(5S)-7-[(2R)-2-chloro-2-fluoro-acetyl]-1-oxo-2,7-diazaspiro[4.4]nonan-2-yl]-N-[(7S,13S)-21-ethyl-24-fluoro-(20M)-20-[2-[(1S)-1-methoxyethyl]-5-[4-(2,2,2-trifluoroethyl)piperazin-1-yl]-3-pyridyl]-17,17-dimethyl-8,14-dioxo-15-oxa-4-thia-9,21,27,28-tetrazapentacyclo[17.5.2.1^2,5.1^9,13.0^22,26]octacosa-1(25),2,5(28),19,22(26),23-hexaen-7-yl]-3-methyl-butanamide] | – | – | – | – | – | 32 | 3300 | 910 | –

Source: patent US20250206761A1, “HALOINDOLE MACROCYCLIC COMPOUNDS FOR THE TREATMENT OF CANCER” (Hoffmann-La Roche Inc., priority 2022, published 2025)
